Reference: ChEMBL document CHEMBL4340512, “Discovery of novel triazolo[4,3-b]pyridazin-3-yl-quinoline derivatives as PIM inhibitors” (Eur J Med Chem, 2019)

What was measured:
Format in all cases: functional
MIA PaCa-2 = assay: Antiproliferative activity against human MIAPaCa2 assessed as combination index at 20 uM incubated for 72 hrs in presence of GI50 dose of GDC-0941 by CellTiter-Glo luminescence assay
MDA-MB-231 = assay: Antiproliferative activity against human MDA-MB-231 cells incubated for 72 hrs by CellTiter-Glo luminescence assay; details: MDA-MB-231, 72 h
[1] = Antiproliferative activity against human MDA-MB-175 cells incubated for 72 hrs by CellTiter-Glo luminescence assay
NCI-H522 = assay: Antiproliferative activity against human NCI-H522 cells incubated for 72 hrs by CellTiter-Glo luminescence assay; details: NCI-H522, 72 h
[2] = Antiproliferative activity against human TC71 cells incubated for 72 hrs by CellTiter-Glo luminescence assay; details: TC-71, 72 h
PC-3 = assay: Antiproliferative activity against human PC3 assessed as combination index at 20 uM incubated for 72 hrs in presence of GI50 dose of Vorinostat by CellTiter-Glo luminescence assay

GI50 (MDA-MB-231): 21.2 µM
GI50 (NCI-H522): 9.7 µM
SMILES: COCCN1CCOc2c1cnn1c(-c3ccc4cccc(NCC5CCNCC5)c4n3)nnc21
CI (MIA PaCa-2): 0.075
GI50 [1]: 10.2 µM
GI50 [2]: 14.9 µM
CI (PC-3): 0.346
